This is an account of results in US12552757B2, “NRF2-activating compound” (SENJU PHARMACEUTICAL CO., LTD., priority 2019, dated 2026).

One data set has as its system NRF2. As to the kind of experiment: Measurement 2 of Nrf2 activating action (reporter assay) in HCE-T/ARE-Luc cells. It is filed as cell-based. The conditions noted are these: 50% activation concentration, culture for 24 hours. Here is the method: The NRF2 activating action of the compounds on cells was measured by a reporter gene assay. pGL4.37[luc2P/ARE/Hygro](Promega) was introduced into HCE-T cells using FuGENE HD. Cells that acquired drug resistance as a result of transduction were screened by culture in the presence of 50 μg/mL hygromycin, and a clone strain, HCE-T/ARE-Luc, was established.
HCE-T/ARE-Luc was cultured using DMEM/F12, 10 ng/mL hEGF, 5 μg/mL insulin, and 5% FBS. Phenol red-free DMEM/F12 was used as the assay medium.
HCE-T/ARE-Luc was seeded in a 96-well polystyrene microplate (FALCON) with 10000 cells per well. The cells were incubated in a CO: incubator at 37° C. for 16 hours to allow for cell adhesion. The test substance was dissolved in dimethylsulfoxide to prepare a solution at a concentration 1000 times higher than the test concentration. The test substance diluted 1000-fold in the assay medium was added, followed by culture for 24 hours. When measuring the activity of the reporter, the medium containing the test substance was removed, and then a new medium and a substrate of ONE-GloEX Luciferase Assay System (Promega) were added. The plate was shaken for 1 minute and then allowed to stand at ordinary temperature for 10 minutes, and luminescence was detected using the GloMax Discover System.
The 50% activation concentration of each test substance was calculated by creating a calibration curve between two concentrations across the luminescence intensity of 50%.
In general terms: A reporter such as luciferase makes a cellular process visible.

Data set [1] is described as follows: Measurement of metabolic stability in human liver microsomes. It is filed as in vitro ADME. The conditions noted are these: residual ratio of test compound after 30 minutes at 37° C. with human liver microsome, LC/MS/MS. Here is the method:
1 mmol/L DMSO solutions of the compounds produced in the Examples were prepared. Each of the 1 mmol/L DMSO solutions was diluted with acetonitrile to 10 μmol/L, and then diluted with a 6.5 mmol/L Q-NADPH solution to 200 nmol/L. 50 μL of each solution was added to the reaction group and the non-reaction group. 50 μL of a 0.2 mg protein/mL human liver microsome (Mixed Gender, Pool of 50 livers; XenoTech, LLC) solution was added to the reaction group, followed by incubation at 37° C. for 30 minutes with shaking. After 400 μL of methanol was added to the non-reaction group, 50 μL of a 0.2 mg protein/mL human liver microsome solution was added to adjust the formulation. After incubation in the reaction group, 400 μL of methanol was added to stop the reaction. The samples of the reaction group and non-reaction group were allowed to stand at −20° C. for about 30 minutes, followed by centrifugation at 4° C. at 3000 rpm for about 10 minutes. The supernatant was analyzed using LC/MS/MS, and the residual ratio of the test compound was calculated from the peak area value of the test compound using the following formula. The measurement was carried out using the following devices: HPLC system: LC-20A-Series High Performance Liquid Chromatograph (Shimadzu Corporation) and mass spectrometer: API 4000 (AB Sciex Pte. Ltd.), or using equivalent devices. Residual ratio (%)=(peak area value of test compound in reaction group/peak area value of test compound in non-reaction group)×100 Results
(Microsomes from liver hold many membrane-bound enzymes, among them those of drug oxidation.)

Data set [2] concerns the target T1, binding between NRF2 and KEAP1 (Homo sapiens, UniProt Q14145).
T1 construct: expressed in transfected cells; host or cells: HCE-T cells; each protein was expressed separately, and the two cell lysates were mixed in the well
As to the kind of experiment: Measurement 1 of Nrf2 activating action (binding assay): BRET assay of inhibition of the binding between NRF2 and KEAP1. The conditions noted are these: 50% binding inhibitory concentration, NanoLuc-NRF2 / KEAP1-HaloTag cell lysates. Here is the method:
Compounds 1 to 53 produced in the Examples were used as test substances.
The inhibitory activity of each compound on the binding between NRF2 and KEAP1 was measured by bioluminescence resonance energy transfer (BRET) assay. A plasmid having human NRF2 (Original Clone ID: ha01449s1) sequence fused with NanoLuc (19 kDa, Promega) at the N-terminal was transduced into HCE-T cells using FuGENE HD (Promega). 48 hours after transduction, the cell lysate was collected and used as an NRF2-expressing cell lysate. A plasmid having human KEAP1 (Original Clone ID: cs00328) sequence fused with HaloTag (33 kDa, Promega) at the C-terminal was transduced into HCE-T cells using FuGENE HD (Promega). After 24 hours, HaloTag Nano BRET 618 Ligand (Promega) was added to the medium. The cell lysate cultured for 24 hours after the addition was used as a KEAP1-expressing cell lysate.
The NRF2-expressing cell lysate and the KEAP1-expressing cell lysate were adjusted so that the luminescence and fluorescence intensities per well were constant. Tables 1 and 2 show the formulation of each reaction solution.
Each test substance at a concentration 100 times higher than the test concentration was dissolved in dimethylsulfoxide for adjustment. 49 μL of KEAP1 solution was added to a 96-well polystyrene microplate (FALCON) to which 1 μL of each test substance solution was added, followed by incubation for 15 minutes. Then, 50 μL of NRF2 solution was added to the above solution, followed by incubation for 1 hour. To measure the binding between NRF2 and KEAP1, NanoBRET Nano-Glo Substrate (Promega) diluted with Opti-Mem (Thermo Fisher Scientific) was added, followed by shaking for 30 seconds. Then, luminescence and fluorescence were measured using the GloMax Discover System (Promega). A 495-nm short pass filter and a 600-nm long pass filter were respectively used to measure donor and acceptor emission values. A value obtained by dividing the acceptor emission value by the donor emission value was regarded as BRET value. A BRET value when the compound was not added, and a BRET value when the KEAP1 solution was not added were respectively used as binding rates of 100% and 0%, and the binding rate when the compound was added was calculated. Further, using this binding rate, the 50% binding inhibitory activity concentration (IC50) was calculated from the following formula: IC50(M)=10^(LOG(A/B)×(50−C)/(D−C)+LOG(B)) • A: higher concentration out of 2 close concentrations across the inhibition rate of 50% • B: lower concentration out of 2 close concentrations across the inhibition rate of 50% • C: inhibition rate at B • D: inhibition rate at A

The structures appear in SMILES notation.

T1 sequence (Q14145 whole entry): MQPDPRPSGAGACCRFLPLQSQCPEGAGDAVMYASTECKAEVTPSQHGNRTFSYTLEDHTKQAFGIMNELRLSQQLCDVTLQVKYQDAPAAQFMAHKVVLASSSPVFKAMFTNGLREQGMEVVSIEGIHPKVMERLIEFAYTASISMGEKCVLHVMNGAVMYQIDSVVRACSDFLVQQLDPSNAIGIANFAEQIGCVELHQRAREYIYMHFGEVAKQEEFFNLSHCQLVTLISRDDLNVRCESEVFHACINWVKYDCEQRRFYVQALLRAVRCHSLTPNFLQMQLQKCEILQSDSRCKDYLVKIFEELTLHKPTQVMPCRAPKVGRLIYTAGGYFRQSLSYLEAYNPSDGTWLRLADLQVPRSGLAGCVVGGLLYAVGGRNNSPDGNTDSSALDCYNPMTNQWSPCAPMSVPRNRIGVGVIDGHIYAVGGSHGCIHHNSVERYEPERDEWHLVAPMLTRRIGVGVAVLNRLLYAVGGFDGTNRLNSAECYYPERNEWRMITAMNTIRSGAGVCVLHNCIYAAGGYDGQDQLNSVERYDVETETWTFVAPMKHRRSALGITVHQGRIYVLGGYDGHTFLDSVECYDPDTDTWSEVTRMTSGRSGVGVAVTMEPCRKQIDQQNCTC

`CC(=O)c1ccc(C(c2ccc(C)c(CN3CC(CCOCc4ccccc4)Oc4ccccc4S3(=O)=O)c2)C(C)C(=O)O)s1` (stereo not drawn) [Compound 13, 3-(5-acetylthiophen-2-yl)-3-[3-({4-[2-(benzyloxy)ethyl]-1,1-dioxide-3,4-dihydro-2H-benzo[b][1,4,5]oxathiazepin-2-yl}methyl)-4-methylphenyl]-2-methylpropanoic acid]: in the data set with NRF2, the EC50 worked out at 6.71 nM. Moreover, the “Metabolic stability*” value in data set [1] is 2%.
In the same order, the values of `CC[C@@H]1CN(Cc2cc(C(c3cc(F)c(C(C)=O)s3)C(C)(C)C(=O)O)ccc2C)S(=O)(=O)c2cnccc2O1` (stereo partly drawn) [Compound 49, 3-(5-acetyl-4-fluorothiophen-2-yl)-3-(3-{[(R)-4-ethyl-1,1-dioxide-3,4-dihydro-2H-pyrido[4,3-b][1,4,5]oxathiazepin-2-yl]methyl}-4-methylphenyl)-2,2-dimethylpropanoic acid] are 7.76 nM and 44%.
The corresponding values for `CC[C@@H]1CN(Cc2cc(C(c3ccc(C(C)=O)s3)C(C)C(=O)O)ccc2C)S(=O)(=O)c2cnccc2O1` (stereo partly drawn) [Compound 16, 3-(5-acetylthiophen-2-yl)-3-(3-{[(R)-4-ethyl-1,1-dioxide-3,4-dihydro-2H-pyrido[4,3-b][1,4,5]oxathiazepin-2-yl]methyl}-4-methylphenyl)-2-methylpropanoic acid] are 3.57 nM and 51%.
In the same order, the values of `CC[C@@H]1CN(Cc2cc(C(c3ccc(C(C)=O)s3)C(C)C(=O)O)ccc2C)S(=O)(=O)c2ccccc2O1` (stereo partly drawn) [Compound 1, 3-(5-acetylthiophen-2-yl)-3-(3-{[(R)-4-ethyl-1,1-dioxide-3,4-dihydro-2H-benzo[b][1,4,5]oxathiazepin-2-yl]methyl}-4-methylphenyl)-2-methylpropanoic acid] are 9.19 nM and 37%.
Compound `CC[C@@H]1CN(Cc2cc(C(c3cc(C(C)=O)cs3)C(C)C(=O)O)ccc2C)S(=O)(=O)c2ccccc2O1` (stereo partly drawn) [Compound 3, 3-(4-acetylthiophen-2-yl)-3-(3-{[(R)-4-ethyl-1,1-dioxide-3,4-dihydro-2H-benzo[b][1,4,5]oxathiazepin-2-yl]methyl}-4-methylphenyl)-2-methylpropanoic acid] yielded an EC50 with NRF2 of 6.81 nM. Further, the “Metabolic stability*” value in data set [1] turned out to be 51%.
Take `CC[C@@H]1CN(Cc2cc(C(c3cc(OC)c(C(C)=O)s3)C(C)(C)C(=O)O)ccc2C)S(=O)(=O)c2cnccc2O1` (stereo partly drawn) [Compound 50, 3-(5-acetyl-4-methoxythiophen-2-yl)-3-(3-{[(R)-4-ethyl-1,1-dioxide-3,4-dihydro-2H-pyrido[4,3-b][1,4,5]oxathiazepin-2-yl]methyl}-4-methylphenyl)-2,2-dimethylpropanoic acid]: the EC50 in the data set with NRF2 came to 2.98 nM. Moreover, the “Metabolic stability*” value in data set [1] is 48%.
As to `CC[C@@H]1CN(Cc2cc(C(c3ccc(C(C)=O)s3)C(C)(C)C(=O)O)ccc2C)S(=O)(=O)c2cnccc2O1` (stereo partly drawn) [Compound 48, 3-(5-acetylthiophen-2-yl)-3-(3-{[(R)-4-ethyl-1,1-dioxide-3,4-dihydro-2H-pyrido[4,3-b][1,4,5]oxathiazepin-2-yl]methyl}-4-methylphenyl)-2,2-dimethylpropanoic acid], the EC50 in the data set on NRF2 stood at 3.67 nM. Further, the “Metabolic stability*” value in data set [1] amounted to 56%.
A word on the IC50: it is the midpoint of a concentration-inhibition curve. On to `CC[C@@H]1CN(Cc2cc(C(CC(=O)O)c3ccc(C(C)=O)n3CC)ccc2C)S(=O)(=O)c2ccccc2O1` (stereo partly drawn) [Compound 34, 3-(5-acetyl-1-ethyl-1H-pyrrol-2-yl)-3-(3-{[(R)-4-ethyl-1,1-dioxide-3,4-dihydro-2H-benzo[b][1,4,5]oxathiazepin-2-yl]methyl}-4-methylphenyl)propanoic acid], for which, in data set [1], the “Metabolic stability*” value came out at 54%. For the same compound, the IC50 in data set [2] turned out to be 47 nM.
`CC[C@@H]1CN(Cc2cc(C(CC(=O)O)c3cc(C#N)n(C)c3)ccc2C)S(=O)(=O)c2ccccc2O1` (stereo partly drawn) [Compound 36, 3-(5-cyano-1-methyl-1H-pyrrol-3-yl)-3-(3-{[(R)-4-ethyl-1,1-dioxide-3,4-dihydro-2H-benzo[b][1,4,5]oxathiazepin-2-yl]methyl}-4-methylphenyl)propanoic acid]: the “Metabolic stability*” value in data set [1] stood at 29%. This compound also gave a half-maximal inhibitory concentration (IC50) in data set [2] of 2.5 nM.
